Measured values as given in PubChem BioAssay (NCI).
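How tested: cells in 96-well plates exposed to compound for 48 hours at five concentrations. GI50: concentration for 50% inhibition of growth. The concentration for full growth arrest is given as TGI.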

Assays:
Assay in all cases: DTP human tumour cell line panel, 48 h
NCI-H226 lung = tested on: NCI-H226 lung
UACC-257 melanoma = tested on: UACC-257 melanoma
UO-31 renal = tested on: UO-31 renal
HOP-62 NSCLC = tested on: HOP-62 NSCLC
SK-MEL-2 melanoma = tested on: SK-MEL-2 melanoma
HS 578T breast = tested on: HS 578T breast
SW-620 colon = tested on: SW-620 colon
K-562 leukemia = tested on: K-562 leukemia
T-47D breast = tested on: T-47D breast
OVCAR-4 ovarian = tested on: OVCAR-4 ovarian
NCI-H460 lung = tested on: NCI-H460 lung
SK-MEL-5 melanoma = tested on: SK-MEL-5 melanoma
NCI/ADR-RES ovarian = tested on: NCI/ADR-RES ovarian
ACHN renal = tested on: ACHN renal
UACC-62 melanoma = tested on: UACC-62 melanoma
786-0 renal = tested on: 786-0 renal
A549 NSCLC = tested on: A549 NSCLC
SF-268 CNS = tested on: SF-268 CNS
EKVX NSCLC = tested on: EKVX NSCLC
COLO 205 colon = tested on: COLO 205 colon
MDA-MB-231 breast = tested on: MDA-MB-231 breast
BT-549 breast = tested on: BT-549 breast
PC-3 prostate = tested on: PC-3 prostate
MDA-MB-435 = tested on: MDA-MB-435
CAKI-1 renal = tested on: CAKI-1 renal

SMILES: N#Cc1cccc(C(=O)Nc2cccc(NC(=O)c3cccc(C#N)c3)c2)c1
- GI50 (NCI-H226 lung): 49.1 µM
- TGI (NCI-H226 lung): > 100 µM
- GI50 (UACC-257 melanoma): > 100 µM
- TGI (UACC-257 melanoma): > 100 µM
- GI50 (UO-31 renal): > 100 µM
- TGI (UO-31 renal): > 100 µM
- GI50 (HOP-62 NSCLC): 33.5 µM
- TGI (HOP-62 NSCLC): 74 µM
- GI50 (SK-MEL-2 melanoma): > 100 µM
- TGI (SK-MEL-2 melanoma): > 100 µM
- GI50 (HS 578T breast): 39 µM
- TGI (HS 578T breast): > 100 µM
- GI50 (SW-620 colon): > 100 µM
- TGI (SW-620 colon): > 100 µM
- GI50 (K-562 leukemia): > 100 µM
- TGI (K-562 leukemia): > 100 µM
- GI50 (T-47D breast): > 100 µM
- TGI (T-47D breast): > 100 µM
- GI50 (OVCAR-4 ovarian): > 100 µM
- TGI (OVCAR-4 ovarian): > 100 µM
- GI50 (NCI-H460 lung): 42.8 µM
- TGI (NCI-H460 lung): > 100 µM
- GI50 (SK-MEL-5 melanoma): 29.2 µM
- TGI (SK-MEL-5 melanoma): > 100 µM
- GI50 (NCI/ADR-RES ovarian): 95.7 µM
- TGI (NCI/ADR-RES ovarian): > 100 µM
- GI50 (ACHN renal): > 100 µM
- TGI (ACHN renal): > 100 µM
- GI50 (UACC-62 melanoma): 34.1 µM
- TGI (UACC-62 melanoma): > 100 µM
- GI50 (786-0 renal): 33.4 µM
- TGI (786-0 renal): > 100 µM
- GI50 (A549 NSCLC): 74.3 µM
- TGI (A549 NSCLC): > 100 µM
- GI50 (SF-268 CNS): 17 µM
- TGI (SF-268 CNS): 56 µM
- GI50 (EKVX NSCLC): > 100 µM
- TGI (EKVX NSCLC): > 100 µM
- GI50 (COLO 205 colon): > 100 µM
- TGI (COLO 205 colon): > 100 µM
- GI50 (MDA-MB-231 breast): 75.9 µM
- TGI (MDA-MB-231 breast): > 100 µM
- GI50 (BT-549 breast): > 100 µM
- TGI (BT-549 breast): > 100 µM
- GI50 (PC-3 prostate): 77.6 µM
- TGI (PC-3 prostate): > 100 µM
- GI50 (MDA-MB-435): > 100 µM
- TGI (MDA-MB-435): > 100 µM
- GI50 (CAKI-1 renal): 6.95 µM
